Experimental data: ChEMBL document CHEMBL5150074, “Structure-Based Design of a Dual-Targeted Covalent Inhibitor Against Papain-like and Main Proteases of SARS-CoV-2” (J Med Chem, 2022)

Key:
[1] = Binding affinity to SARS-CoV-2 PLpro C111A mutant assessed as dissociation constant by isothermal titration calorimetry assay; parameters: species or system Severe acute respiratory syndrome coronavirus 2
[2] = Binding affinity to SARS-CoV-2 MPro C145A mutant assessed as dissociation constant by isothermal titration calorimetry assay; parameters: species or system Severe acute respiratory syndrome coronavirus 2

Cl.O=C1C=C(Nc2ccccc2N2CCNCC2)C2=NS(=O)(=O)c3cccc1c32
Kd [1]: 2300 nM
Kd [2]: 1500 nM
